Experimental data: ChEMBL document CHEMBL1122700, “Structure-activity, theoretical, and X-ray studies on the intramolecular interactions in a series of novel histamine H2 receptor antagonists” (1984)

Assays:
Canis familiaris = experiment: Inhibition of histamine-stimulated gastric acid secretion in dog after intravenous administration; assay type: functional; conditions: Canis lupus familiaris, Stomach
[1] = biological target: Histamine H2 receptor (Cavia porcellus) (UniProt P47747); experiment: Histamine H2 receptor affinity was assessed in vitro by antagonism of dimaprit-stimulated chronotropic response in guinea pig right atrium at 0.1 ug/mL; assay type: functional, tissue-based; conditions: Cardiac atrium
[2] = biological target: Histamine H2 receptor (Cavia porcellus) (UniProt P47747); experiment: Binding constant towards histamine H2 receptor

Sequence of Histamine H2 receptor (Cavia porcellus) (P47747 whole entry): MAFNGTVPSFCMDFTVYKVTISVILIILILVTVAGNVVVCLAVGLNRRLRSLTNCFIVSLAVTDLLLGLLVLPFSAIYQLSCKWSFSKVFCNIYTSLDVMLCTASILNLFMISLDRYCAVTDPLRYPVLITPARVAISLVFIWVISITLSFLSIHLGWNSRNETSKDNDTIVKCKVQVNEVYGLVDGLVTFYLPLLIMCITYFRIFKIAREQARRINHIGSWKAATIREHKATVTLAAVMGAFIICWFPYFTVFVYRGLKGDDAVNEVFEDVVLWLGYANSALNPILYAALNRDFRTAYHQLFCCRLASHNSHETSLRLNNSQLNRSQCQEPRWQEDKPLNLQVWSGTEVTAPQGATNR

Compound	ED50 (Canis familiaris) [mg/kg]	Relative potency [1]	-Log KB [2]
CN(C)Cc1cccc(CSCCNc2n[s+]([O-])nc2N)n1 (stereo not drawn)	0.17	0.84	–
CN(C)Cc1ccc(CSCCNc2n[s+]([O-])nc2N)s1 (stereo not drawn)	0.008	–	–
CN(C)Cc1ccc(CSCCNc2n[s+]([O-])nc2N)[nH]1 (stereo not drawn)	0.17	0.31	6.85
CN(C)Cc1cccc(CSCCNc2n[s+]([O-])nc2N)c1 (stereo not drawn)	0.013	0.51	–
